Series [1] has as its system HCCLM3. Description: Cytotoxicity against human HCCLM3 cells assessed as inhibition of cell proliferation incubated for 48 hrs by MTT assay. The settings on record: HCCLM3, 48 h. The format is functional, cell-based.
Another series has as its system Huh-7. Description: Cytotoxicity against human Huh-7 cells assessed as inhibition of cell proliferation incubated for 48 hrs by MTT assay. The series is classed as functional, cell-based. To be noted: Huh-7, 48 h.
Series [2] has as its system MHCC97H. Kind of series: Antitumor activity against human MHCC97H cells xenografted in nude mouse assessed as tumor growth inhibition at 20 mg/kg, po administered daily for 3 weeks relative to control. To be noted: 504 h, read-out: TGI. The format is functional. (In xenograft studies the graft and the host belong to different species.)
The next series concerns HepG2. Kind of series: Cytotoxicity against human HepG2 cells assessed as inhibition of cell proliferation incubated for 48 hrs by MTT assay. To be noted: HepG2, 48 h. The series is classed as functional, cell-based. A general note: Tetrazolium assays rely on reduction of a dye to a coloured formazan, in cell work by metabolically active cells.
Series [3] deals with MHCC97H. Description: Cytotoxicity against human MHCC97H cells assessed as inhibition of cell proliferation incubated for 48 hrs by MTT assay. The series is classed as functional, cell-based.
Series [4] concerns MHCC97H. Kind of series: Antitumor activity against human MHCC97H cells xenografted in nude mouse assessed as tumor weight at 20 mg/kg, po administered daily for 3 weeks (reference value: 1.667g). The format is functional.
The nature of series [5]: Toxicity in nude mouse implanted with human MHCC97H cells assessed as body weight at 20 mg/kg, po administered daily for 3 weeks and measured immediately (reference value: 25.05 g). The format is organism-based. The settings on record: in vivo, 504 h.
Series [6] in a line: Toxicity in nude mouse implanted with human MHCC97H cells assessed as body weight at 15 mg/kg, po administered daily for 3 weeks and measured immediately (reference value: 25.05 g). The series is classed as organism-based. The settings on record: in vivo, 504 h.
The nature of series [7]: Toxicity in nude mouse implanted with human MHCC97H cells assessed as kidney damage at 5 to 15 mg/kg, po administered daily for 3 weeks by H and E staining based analysis. The settings on record: in vivo, 504 h, dose 5-15 mg/kg. The series is classed as organism-based.
Series [8] in a line: Toxicity in nude mouse implanted with human MHCC97H cells assessed as body weight at 10 mg/kg, po administered daily for 3 weeks and measured at day 22 (reference value: 26.38 g). The settings on record: in vivo, 1032 h, time 43 day. The series is classed as organism-based.
A short description of series [9]: Toxicity in nude mouse implanted with human MHCC97H cells assessed as body weight at 15 mg/kg, po administered daily for 3 weeks and measured at day 22 (reference value: 26.38 g). The series is classed as organism-based. To be noted: in vivo, 1032 h, time 43 day.
Series [10] can be described thus: Toxicity in nude mouse implanted with human MHCC97H cells assessed as body weight at 5 mg/kg, po administered daily for 3 weeks and measured immediately (reference value: 25.05 g). The format is organism-based. To be noted: in vivo, 504 h.
Series [11] is described as follows: Toxicity in nude mouse implanted with human MHCC97H cells assessed as liver damage at 5 to 15 mg/kg, po administered daily for 3 weeks by H and E staining based analysis. The series is classed as organism-based. The settings on record: in vivo, 504 h, dose 5-15 mg/kg.
The nature of series [12]: Toxicity in nude mouse implanted with human MHCC97H cells assessed as heart damage at 5 to 15 mg/kg, po administered daily for 3 weeks by H and E staining based analysis. To be noted: in vivo, 504 h, dose 5-15 mg/kg. The format is organism-based.
Series [13] can be described thus: Toxicity in nude mouse implanted with human MHCC97H cells assessed as body weight at 5 mg/kg, po administered daily for 3 weeks and measured at day 22 (reference value: 26.38 g). To be noted: in vivo, 1032 h, time 43 day. The series is classed as organism-based.
Series [14] in a line: Toxicity in nude mouse implanted with human MHCC97H cells assessed as spleen damage at 5 to 15 mg/kg, po administered daily for 3 weeks by H and E staining based analysis. The series is classed as organism-based. To be noted: in vivo, 504 h, dose 5-15 mg/kg.
Series [15] is described as follows: Toxicity in nude mouse implanted with human MHCC97H cells assessed as lung damage at 5 to 15 mg/kg, po administered daily for 3 weeks by H and E staining based analysis. The series is classed as organism-based. To be noted: in vivo, 504 h, dose 5-15 mg/kg.
Series [16] is described as follows: Toxicity in nude mouse implanted with human MHCC97H cells assessed as body weight at 10 mg/kg, po administered daily for 3 weeks and measured immediately (reference value: 25.05 g). The format is organism-based. The settings on record: in vivo, 504 h.
Series [17] has as its system HCCLM3. Kind of series: Cytotoxicity against human HCCLM3 cells assessed as cell viability up to 40 uM measured at 24 to 48 hrs by MTT assay. The series is classed as functional, cell-based. To be noted: time 24-48 hrs.
Series [18] relates to MHCC97H. Kind of series: Cytotoxicity against human MHCC97H cells assessed as reduction in cell viability at 40 uM by MTT assay. To be noted: time 48.0 hrs. The series is classed as functional, cell-based.
Series [19] has as its system HCCLM3. Description: Cytotoxicity against human HCCLM3 cells assessed as reduction in cell viability up to 40 uM measured at 48 hrs by MTT assay. The series is classed as functional, cell-based.
Series [20] deals with MHCC97H. Kind of series: Cytotoxicity against human MHCC97H cells assessed as cell viability incubated at 12 to 48 hrs hrs by MTT assay. The series is classed as functional, cell-based. To be noted: dose <= 40.0 µM, time 12-48 hrs.
For series [21], the system named is HCCLM3. Kind of series: Cytotoxicity against human HCCLM3 cells assessed as cell viability up to 40 uM measured at 12 hrs by MTT assay. The format is functional, cell-based.
Series [22] deals with HCCLM3. Kind of series: Cytotoxicity against human HCCLM3 cells assessed as cell viability up to 40 uM by MTT assay. To be noted: time 12-48 hrs. The format is functional, cell-based.
The test system of series [23] is MHCC97H. Description: Antitumor activity against human MHCC97H cells xenografted in nude mouse assessed as increase in apoptotic cells at 15 mg/kg, po administered daily for 3 weeks by TUNEL staining based assay. The series is classed as functional, organism-based.
Series [24] has as its system HCCLM3. Kind of series: Cytotoxicity against human HCCLM3 cells assessed as reduction in cell viability at 40 uM by MTT assay. The format is functional, cell-based. To be noted: time 48.0 hrs.
Series [25] has as its system HCCLM3. Description: Cytotoxicity against human HCCLM3 cells assessed as reduction in cell viability at 40 uM measured at 48 hrs by MTT assay. The series is classed as functional, cell-based.
Series [26] relates to MHCC97H. Description: Cytotoxicity against human MHCC97H cells assessed as reduction in cell viability up to 40 uM measured at 48 hrs by MTT assay. The format is functional, cell-based.
Series [27] has as its system MHCC97H. Kind of series: Cytotoxicity against human MHCC97H cells assessed as cell viability up to 40 uM measured at 12 hrs by MTT assay. The series is classed as functional, cell-based.
Series [28] deals with MHCC97H. Kind of series: Cytotoxicity against human MHCC97H cells assessed as cell viability up to 40 uM by MTT assay. The format is functional, cell-based. The settings on record: time 12-48 hrs.
Series [29] relates to MHCC97H. Description: Cytotoxicity against human MHCC97H cells assessed as cell viability up to 40 uM measured at 24 to 48 hrs by MTT assay. To be noted: time 24-48 hrs. The series is classed as functional, cell-based.
Series [30] concerns MHCC97H. Description: Cytotoxicity against human MHCC97H cells assessed as reduction in cell viability at 40 uM measured at 48 hrs by MTT assay. The series is classed as functional, cell-based.
For series [31], the system named is HCCLM3. Description: Cytotoxicity against human HCCLM3 cells assessed as cell viability incubated at 12 to 48 hrs hrs by MTT assay. The settings on record: dose <= 40.0 µM, time 12-48 hrs. The series is classed as functional, cell-based.

The source made the active and inactive calls. The calls are words filed in the database; no cut-off is given here.

Turning to `CNC(=O)c1cc(Oc2ccc(NC(=O)Nc3ccc(Cl)c(C(F)(F)F)c3)cc2)ccn1` [SORAFENIB], the IC50 (as a rule, the concentration at which inhibition is half-maximal) in the series with HCCLM3 [1] is 9.22 µM; with Huh-7, 13.8 µM; with HepG2, 13.8 µM; with MHCC97H [3], 15.2 µM. Besides, the inhibition in vivo at 20 mg/kg in the series with MHCC97H [2] came out at 42.8%. For the same compound, the Activity in the series with MHCC97H [4] worked out at 0.955 g; in [5] it was 26.85 g.
`CC[C@H](C)[C@@H]1NC(=O)[C@@H]2CCCN2C(=O)[C@H](CC(C)C)NC(=O)[C@H](CO)NC(=O)[C@H](CC(C)C)NC(=O)[C@H](C(C)C)NC(=O)[C@H](CC(C)C)NC(=O)[C@H](CC(C)C)NC(=O)[C@H](CC(C)C)NC1=O`: the Activity in [6] is on record as 24.9 g; in [7], “Non-toxic”; in series [8], 26.3 g; in series [9] it was 26.3 g; in series [10], 25.43 g; in series [11], “Non-toxic”. The Activity result in series [12] was “Non-toxic”; in [13], 26.38 g; in series [14] it was “Non-toxic”; in series [15], “Non-toxic”; in series [16], 25 g. Further, the half-inhibitory concentration (IC50) is 35.7 µM in the series on HCCLM3 [1], more than 100 µM in the series on Huh-7, more than 100 µM in the series on HepG2 and 33.3 µM in the series on MHCC97H [3].
For the compound `CC[C@@H](C)[C@H]1NC(=O)[C@@H]2CCCN2C(=O)[C@@H](CC(C)C)NC(=O)[C@H](CO)NC(=O)[C@@H](CC(C)C)NC(=O)[C@H](C(C)C)NC(=O)[C@H](CC(C)C)NC(=O)[C@H](CC(C)C)NC(=O)[C@H](CC(C)C)NC1=O`, the outcome in the series with HCCLM3 [17], in the series on HCCLM3 [19], with HCCLM3 [21], with MHCC97H [23], with HCCLM3 [25] and in the series on MHCC97H [26] was Active. The outcome in the series with MHCC97H [27], in the series on MHCC97H [29] and with MHCC97H [30] was Active. Also, the Activity entry in the series on MHCC97H [18] was “Time-dependent-effect”; in the series on MHCC97H [20] it was “Dose-dependent-effect”; with HCCLM3 [22], “Time-dependent-effect”; in the series with HCCLM3 [24] it was “Time-dependent-effect”; in the series with MHCC97H [28], “Time-dependent-effect”; in the series with HCCLM3 [31], “Dose-dependent-effect”.

These data come from ChEMBL document CHEMBL6109101, “Synthesis and bioactivity of cyclic peptide GG-8-6 analogues as anti-hepatocellular carcinoma agents” (Eur J Med Chem, 2025).
